Legend:
[1] = system: HIV-1NL43; assay: Anti-HIV assay (single round), infectivity of virus produced, titered on TZM-b1 cells; type: cell-based; settings: virus from NL43-transfected 293T cells, 72 hours; luciferase after two days; read-out: Infectivity 50%
Protocol: (§1) Anti-HIV Assays (Single Round). The inhibitory effect of the compounds on virus production and infectivity were determined by measuring the level of p24 produced in the presence of various concentrations of compounds from HEK-293 cells transiently transfected with pNL43 and by titering the virus on TZM-b1 cells. Briefly, 2.5×10^5 HEK-293 cells/ml were transfected with pNL43 using FuGene 6. Four hours post transfection the cells were plated in 96-well plates containing 100 μl of various concentrations of compounds (0-75 μM or 0-300 μM for mock transfected cells) in triplicate. At 72-hours post transfection virus supernatant was collected and stored at −80° C. until analysis. The level of p24 produced at each compound concentration was determined relative to the level produced in the presence of the DMSO only controls using HIV-1 p24 enzyme-linked immunosorbent assay (ELISA) (Beckman-Coulter). To determine the infectivity of the virus produced TZM-b1 cells were plated at 1×10^5 cells/ml in 100 μL in 96-well plates overnight. The next day, the media was replaced with 75 μL DMEM supplemented with 1% FBS, 1× PSG and 40 μg/ml DEAE Dextran and 25 μL of viral supernatant from the HEK-293 cells was added to each well. Three hours later 100 μL of DMEM with 7% FBS was added to each well. Two days after infection the cells were lysed and the level of luciferase expression was determined using the Bright-Glo assay.
(§2) FIGS. 12-18 show the anti-HIV assays for the examples of chemical compounds used according to the invention. After in-vitro assay, the chemical compounds in FIGS. 12-18 were selected for screening for cell viability and toxicity. Jurkat cells assay was used as screening assay. In Jurkat cells assay, JLTRG-R5 cells were used as Indicator cells and MOLT4 cells as Producer cells of NL43 and BAL virus. 96 chemical compounds were plated at seven different concentration from 75 μM to 0 μM at three-fold serial dilutions in 384 well plate. After five days, GFP expression was read. Cell viability was monitored with Alamar Blue assay. Luc M7 assay was designed to measure inhibitory activity of the chemical compounds to viral replication. After infection of cells with YU2 virus, plate cells in 96-well plate in the presence of six concentration of compounds in DMSO. At day 6, the number of cells in wells were read with Cell Titer Glo kit or by counting the number of cells infected with Bright Glo kit. 293T cells assay was designed to determine the toxicity. 293T cells were transfected with NL43. After four hours, transfected cells were plated in 96-well plate in DMSO and 2 μM Indinavir. 72 hours later, viral supernatant was collected and plated on JC53BL. Luciferase expression was measure after two days and p24 analysis was conducted with 1:1000 and 1:2000 dilutions.

[2] = system: 293T cells; assay: Toxicity in 293T cells; type: cell-based, human; design: unit not given beside the values
Protocol: as §1, §2

[3] = biological target: C-terminal domain of the CA protein (Human immunodeficiency virus type 1 group M subtype B, UniProt P12493); settings: 1 mM compound, 0.02 mM protein domain; peaks at 5.5 ppm and 8 ppm
Description: (§3) The STD-NMR spectroscopy is an extremely powerful and sensitive technique to detect and identify the binding of low molecular weight (MW) ligands specific to a target protein of interest. […] This technique exploits the transfer of radio frequency saturation of the proton magnetization on the large protein to the low MW ligand during the brief period it resides within the binding pocket of the protein, before it is released into solution. It also exploits the large differences in the correlation times of the interacting molecules.

[4] = biological target: N-terminal domain of the CA protein (Human immunodeficiency virus type 1 group M subtype B, UniProt P12493); settings: 1 mM compound; peaks at 5.5 ppm and 8 ppm
Description: as §3

[5] = MTS score (Table 1; method not described); type: cell-based
[6] = system: HIV-1YU2; assay: Anti-HIV assay (multiple round), luciferase expression in Luc-M7 cells; type: cell-based; settings: Luc-M7 cells infected with HIV-1YU2, 6 days, Bright-Glo
Protocol: Anti-HIV Assays (Multiple Round). The inhibitory effects of the tested compounds on HIV-1YU2 replication were determined by the level of luciferase expression after 6 days of infection using Bright-Glo assay (Promega). An amount of 1.5×10^4 Luc-M7 (a gift from Ned Landau) cells per ml were infected with HIV-1YU2 at a multiplicity of infection (MOI) of 3. The HIV-1 infected ([…] compound) or mock-infected (0-300 μM compound) Luc-M7 cells were placed in 96-well culture plates (100 μl/well) with 100 μl of various concentrations of the compounds with 20 μg/ml DEAE Dextran in triplicate and incubated at 37° C. under 5% CO2 at 100% humidity. After 6 days, cell viability was quantified by Cell-Titer Glo assay (Promega). […] On day 5 cell viability was determined in the mock-infected cells. FIGS. 12-18 show the anti-HIV assays for the examples of chemical compounds used according to the invention. After in-vitro assay, the chemical compounds in FIGS. 12-18 were selected for screening for cell viability and toxicity. Jurkat cells assay was used as screening assay. […] After five days, GFP expression was read. Cell viability was monitored with Alamar Blue assay. Luc M7 assay was designed to measure inhibitory activity of the chemical compounds to viral replication. After infection of cells with YU2 virus, plate cells in 96-well plate in the presence of six concentration of compounds in DMSO. At day 6, the number of cells in wells were read with Cell Titer Glo kit or by counting the number of cells infected with Bright Glo kit. 293T cells assay was designed to determine the toxicity. 293T cells were transfected with NL43. After four hours, transfected cells were plated in 96-well plate in DMSO and 2 μM Indinavir. 72 hours later, viral supernatant was collected and plated on J[…].

[7] = system: HIV-1NL43; assay: Anti-HIV assay (single round), p24 production by pNL43-transfected cells (ELISA); type: cell-based; settings: p24 in supernatant of NL43-transfected 293T cells, 72 hours; read-out: p24 50%
Protocol: as §1, §2

Cc1ncc(C[n+]2csc(CCOC(=O)C3C4CC5CC(C4)CC3C5)c2C)c(N)n1.Cl.[Cl-] (stereo not shown) [Compound 26]
IC50 [1]: 17.6 µM | TC50% [2]: 193 | binding to the CTD domain (STD-NMR) [3]: binding of the chemical compound 26 to the CTD domain is clearly indicated | binding to the NTD domain (STD-NMR) [4]: binds to the NTD domain | MTS AVG 4 (No Effect) ([5]; average of the MTS scores at 10, 30 and 100 μM): 4.000 | MTS 10 μM ([5]; score at nominal 10 μM, 4 = No Effect): 4 | MTS 30 μM ([5]; score at nominal 30 μM, 4 = No Effect): 4 | MTS 100 μM ([5]; score at nominal 100 μM, 4 = No Effect): 4 | IC50 [6]: 4.57 µM | IC50 [7]: 60.2 µM

From patent publication US20090176776A1, “SMALL MOLECULE INHIBITORS OF HIV-1 CAPSID ASSEMBLY” (UNIVERSITY OF ALABAMA AT BIRMINGHAM, priority 2005, published 2009)
